Results as given in US20200253868A1, “CELL AUTOPHAGY INHIBITOR AND PREPARATION METHOD THEREFOR AND APPLICATION THEREOF” (CHINA PHARMACEUTICAL UNIVERSITY, priority 2017, published 2020).

Legend:
[1] = tested on: KRAS dependent H441 cells; experiment: PI/Annexin V double staining, flow cytometry; format: cell-based, human; conditions: H441, 24 hours
Protocol: (§1) KRAS independent A549 and H460 and KRAS dependent H441 and H358 cell lines which are cultured overnight in a 10% FBS medium, are digested by trypsin to form cell suspensions, which are seeded at a suitable concentration on a 6-well plate, after 24 h, RA-V (1) is added to treat for 24 hours, and are digested by trypsin, and centrifuge at 2000 rpm for 5-10 minutes at room temperature to collect cells; resuspend the cells once with pre-chilled 1×PBS (4° C.), centrifuge at 2000 rpm for 5-10 minutes, and wash the cells; add 300 μL of 1×Binding Buffer to resuspend the cells; add 5 μL of Annexin V-FITC and mix, and incubate for 15 minutes at room temperature away from light; add 5 μL of PI staining 5 minutes before the operation, and detect the cells by the flow cytometry.

[2] = tested on: KRAS independent H460 cells; experiment: PI/Annexin V double staining, flow cytometry; format: cell-based, human; conditions: H460, 24 hours
Protocol: as §1

[3] = tested on: KRAS independent A549 cells; experiment: PI/Annexin V double staining, flow cytometry; format: cell-based, human; conditions: A549, 24 hours
Protocol: as §1

[4] = tested on: KRAS dependent H358 cells; experiment: PI/Annexin V double staining, flow cytometry; format: cell-based, human; conditions: H358, 24 hours
Protocol: as §1

[5] = tested on: KRAS dependent H441 model; experiment: Human lung cancer xenograft in nude mice, tumor inhibition rate; format: in vivo, BABL/c nude mice; conditions: 2.5 mg/kg, nano-micelle injection, tail vein, once every other day, 14 days
Protocol: (§2) Human lung cancer cells KRAS dependent H441 and KRAS independent H460 are diluted with physiological saline to 1×10^7 cells/mL, and 100 μL of the cell suspension is inoculated subcutaneously in the left armpit of BABL/c nude mice and grown for 7 days to form tumor-bearing mouse model. The tumor-bearing mice with good growth are inoculated and randomly divided into groups. The RA-V nano-micelle injection prepared in Embodiment 3 is administered through the tail vein and administered once every other day, and the animals used are sacrificed 14 days after the administration, and the tumors are removed and weighed, calculate tumor suppression rate and perform statistical processing. Tumor inhibition rate (%)=(average tumor weight in the control group-average tumor weight in the experimental group)/average tumor weight in the control group×100%.

[6] = tested on: KRAS independent H460 model; experiment: as above; format: in vivo, BABL/c nude mice; conditions: 2.5 mg/kg, nano-micelle injection, tail vein, once every other day, 14 days
Protocol: as §2

H460 cells = experiment: Western blot of Capsase3, BCL-2 and BCL-XL; format: cell-based, human
Protocol: (§3) […] A549 and H460 cells which are cultured overnight in a 10% FBS medium are seeded in a 24-well plate at an appropriate density, after 24 hours, the cells are collected to detect the expression levels of […] proteins BCL-2, BCL-XL and […]3 by the Western blot experiment.

A549 cells = experiment: Western blot of Capsase3, BCL-2 and BCL-XL; format: cell-based, human
Protocol: as §3

H358 cells = experiment: Western blot of Capsase3, BCL-2 and BCL-XL; format: cell-based, human
[7] = tested on: KRAS dependent H441 cells; experiment: GFP-LC3 transfection, autophagosome formation by fluorescence microscope; format: cell-based, human; conditions: H441, 24 hours
Protocol: (§4) KRAS dependent H441 and H358 cells which are cultured overnight in a 10% FBS medium are seeded in a 24-well plate at an appropriate density and transfected with the GFP-LC3 plasmid, after 24 hours, RA-V (1) is added to react for 24 hours, and the localization of GFP-LC3 is observed with a fluorescence microscope, and the number of autophagy cells is calculated quantitatively.

[8] = tested on: KRAS dependent H358 cells; experiment: as above; format: cell-based, human; conditions: H358, 24 hours
Protocol: as §4

[9] = tested on: KRAS mutant HCT116 nude mice xenograft; experiment: Human colon cancer xenograft in nude mice, tumor inhibition rate; format: in vivo, BABL/c nude mice; conditions: injection via tail vein, once every other day, 14 days
Protocol: (§5) HCT116 is diluted with serum-free McCoy's 5a medium to 1×10^7 cells/mL, and 100 μL of the cell suspension is inoculated subcutaneously in the left armpit of BABL/c nude mice and grown for 7 days to form a tumor-bearing mouse model. The tumor-bearing mice with good growth are inoculated and randomly divided into groups. The RA-V nano-micelle injection prepared in Embodiment 3 is administered through the tail vein and administered once every other day, and the animals used are sacrificed 14 days after the administration, and the tumors are removed and weighed, calculate tumor suppression rate and perform statistical processing. Tumor inhibition rate (%)=(average tumor weight in the control group-average tumor weight in the experimental group)/average tumor weight in the control group×100%.
as §5, with “RA-XII(2)” for “The RA-V nano-micelle”, “injection” for “injection prepared in Embodiment 3”

[10] = tested on: KRAS dependent H441 cells; experiment: MTT assay of cell viability; format: cell-based, human; conditions: H441, 0, 50, 100, 200 nM, 24 hours
Protocol: (§6) MTT assay is used to determine the cell viability. KRAS independent A549 and H460 and KRAS dependent H441 and H358 cell lines which are cultured overnight in a 10% FBS medium, are digested by trypsin to form cell suspensions, which are seeded at a suitable concentration on a 96-well plate with 100 μl/well, cultured in a CO2 incubator for 24 hours until the cells are completely attached, and RA-V (1) with a final concentration of 0, 50, 100, 200 nM is added to react for 24 hours, and then 20 μl of MTT solution (5 mg/ml in PBS, pH=7.4) is added to each well and continue to incubate for 4 hours, stop the culture, and carefully discard the culture supernatant in the wells. Add 150 μl DMSO to each well and shake for 10 minutes to fully dissolve the crystals. Select the wavelength of 490 nm, measure the light absorption value of each well on the enzyme-linked immunosorbent detector, record the results, draw the cell growth curve with time as the abscissa and absorbance value as the ordinate.

[11] = tested on: KRAS dependent H358 cells; experiment: MTT assay of cell viability; format: cell-based, human; conditions: H358, 0, 50, 100, 200 nM, 24 hours
Protocol: as §6

H441 cells = experiment: Western blot of Capsase3, BCL-2 and BCL-XL; format: cell-based, human
[12] = tested on: KRAS dependent H441 cells; experiment: Western blot of autophagy-related proteins LC3, Atg7 and Beclin1; format: cell-based, human; conditions: H441, 0, 50, 100, 200 nM, 24 hours
Protocol: (§7) KRAS dependent H441 and H358 cells which are cultured overnight in a 10% FBS medium are seeded in a 24-well plate at an appropriate density, after 24 hours, RA-V (1) with a concentration of 0, 50, 100, and 200 nM is added to react for 24 hours, and then the cells are collected to detect the expression levels of autophagy-related proteins LC3, Atg7 and Beclin1 by the Western blot experiment.

[13] = tested on: KRAS dependent H358 cells; experiment: as above; format: cell-based, human; conditions: H358, 0, 50, 100, 200 nM, 24 hours
Protocol: as §7

| SMILES | cell apoptosis (PI/Annexin V) [1] | cell apoptosis (PI/Annexin V) [2] | cell apoptosis (PI/Annexin V) [3] | cell apoptosis (PI/Annexin V) [4] | tumor inhibition rate [5] [%] | anti-tumor effect [6] | cell apoptosis by expression of Capsase3, BCL-2 and BCL-XL (H460 cells) | cell apoptosis by expression of Capsase3, BCL-2 and BCL-XL (A549 cells) | cell apoptosis by expression of Capsase3, BCL-2 and BCL-XL (H358 cells) | GFP-LC3 of treated cells compared with the blank group [7] | GFP-LC3 of treated cells compared with the blank group [8] | tumor inhibition rate ([9]; HCT116, high dosage) [%] | tumor inhibition rate ([9]; HCT116, medium dosage) [%] | cell survival (MTT) [10] | cell survival (MTT) [11] | cell apoptosis by expression of Capsase3, BCL-2 and BCL-XL (H441 cells) | expression levels of LC3-II, Atg7 and Beclin1 [12] | expression levels of LC3-II, Atg7 and Beclin1 [13] |
| --- | --- | --- | --- | --- | --- | --- | --- | --- | --- | --- | --- | --- | --- | --- | --- | --- | --- | --- |
| COc1ccc(C[C@H]2C(=O)N[C@@H](C)C(=O)N(C)C3Cc4ccc(cc4)Oc4cc(ccc4O)C[C@@H](C(=O)N[C@H](C)C(=O)N[C@@H](C)C(=O)N2C)N(C)C3=O)cc1 [RA-V (1), RA-V] | significantly induces the cell apoptosis | no significant effect | no significant effect | significantly induces the cell apoptosis | 50.4 | not effective | no significant effect | no significant effect | significantly induces the cell apoptosis | significantly reduce | significantly reduce | 66.67 | 41.67 | inhibits the survival | inhibits the survival | significantly induces the cell apoptosis | decrease with the increase of the concentration | decrease with the increase of the concentration |
| COc1ccc(C[C@H]2C(=O)N[C@@H](C)C(=O)N(C)C3Cc4ccc(cc4)Oc4cc(ccc4O[C@@H]4OC(CO)[C@@H](O)[C@H](O)C4O)C[C@@H](C(=O)N[C@H](C)C(=O)N[C@@H](C)C(=O)N2C)N(C)C3=O)cc1 (some centres unmarked) [RA-XII (2), RA-XII] |  |  |  |  |  |  |  |  |  |  |  | 79.92 | 68.47 |  |  |  |  |  |
